In US10100058B2, “Fused heterocyclic compounds as CaM kinase inhibitors” (Gilead Sciences, Inc., priority 2016, dated 2018):

Molecular target: recombinant CaMKIIδ (Homo sapiens (Human), UniProt Q13557)
Assay: CaMKIIδ biochemical assay (HTRF)
Details: 10 pM CaMKIIδ, 110 nM calmodulin, 12 μM ATP, 1 hour; read-out: CAMKIID-HTRF-384V2 (IC50 - nM)
Procedure: CaMKIIδ Biochemical Assay
The biochemical activity of recombinant CaMKIIδ was measured by monitoring the phosphorylation of a target peptide using Homogenous Time Resolved Fluorescence (HTRF) technology from CisBio Bioassays.

## CCN(CC)[C@@H](C)CNC(=O)c1cc(-c2cnn3ccc(-c4cccs4)nc23)nc(N2CCC2)c1 [Example 146, (S)-2-(azetidin-1-yl)-N-(2-(diethylamino)propyl)-6-(5-(thiophen-2-yl)pyrazolo[1,5-a]pyrimidin-3-yl)isonicotinamide]
  IC50: 0.19 nM

## CCN(CC)[C@@H](C)CNC(=O)c1cc(-c2cnn3ccc(-c4cccs4)nc23)nc(N2CC(C(F)(F)F)C2)c1 [Example 147, (S)—N-(2-(diethylamino)propyl)-2-(5-(thiophen-2-yl)pyrazolo[1,5-a]pyrimidin-3-yl)-6-(3-(trifluoromethyl)azetidin-1-yl)isonicotinamide]
  IC50: 0.34 nM

## CCN(CC)[C@@H](C)CNC(=O)c1cc(-c2cnn3ccc(-c4cccs4)nc23)nc(N2CC(F)(F)C2)c1 [Example 148, (S)—N-(2-(diethylamino)propyl)-2-(3,3-difluoroazetidin-1-yl)-6-(5-(thiophen-2-yl)pyrazolo[1,5-a]pyrimidin-3-yl)isonicotinamide]
  IC50: 0.21 nM

## CCN(CC)[C@@H](C)CNC(=O)c1cc(-c2cnn3ccc(-c4cccs4)nc23)nc(N2CC(S(C)(=O)=O)C2)c1 [Example 149, (S)—N-(2-(diethylamino)propyl)-2-(3-(methylsulfonyl)azetidin-1-yl)-6-(5-(thiophen-2-yl)pyrazolo[1,5-a]pyrimidin-3-yl)isonicotinamide]
  IC50: 0.14 nM

## CCN(CC)[C@@H](C)CNC(=O)c1cc(-c2cnn3ccc(-c4cccs4)nc23)nc(N2CC(S(=O)(=O)NC)C2)c1 [Example 150, (S)—N-(2-(diethylamino)propyl)-2-(3-(N-methylsulfamoyl)azetidin-1-yl)-6-(5-(thiophen-2-yl)pyrazolo[1,5-a]pyrimidin-3-yl)isonicotinamide]
  IC50: 0.2 nM

## CCN(CC)[C@@H](C)CNC(=O)c1cc(-c2cnn3ccc(-c4cccs4)nc23)nc(N2CC(S(=O)(=O)NC3CC3)C2)c1 [Example 151, (S)-2-(3-(N-cyclopropylsulfamoyl)azetidin-1-yl)-N-(2-(diethylamino)propyl)-6-(5-(thiophen-2-yl)pyrazolo[1,5-a]pyrimidin-3-yl)isonicotinamide]
  IC50: 0.32 nM

## CCN(CC)[C@@H](C)CNC(=O)c1cc(-c2cnn3ccc(-c4cccs4)nc23)nc(N2CC(C)(C)C2)c1 [Example 152, (S)—N-(2-(diethylamino)propyl)-2-(3,3-dimethylazetidin-1-yl)-6-(5-(thiophen-2-yl)pyrazolo[1,5-a]pyrimidin-3-yl)isonicotinamide]
  IC50: 0.59 nM

## CCN(CC)[C@@H](C)CNC(=O)c1cc(-c2cnn3ccc(-c4cccs4)nc23)nc(N2CC(F)C2)c1 [Example 153, (S)—N-(2-(diethylamino)propyl)-2-(3-fluoroazetidin-1-yl)-6-(5-(thiophen-2-yl)pyrazolo[1,5-a]pyrimidin-3-yl)isonicotinamide]
  IC50: 0.13 nM

## CCN(CC)[C@@H](C)CNC(=O)c1cc(-c2cnn3ccc(-c4cccs4)nc23)nc(N2CC(NS(=O)(=O)C3CC3)C2)c1 [Example 154, (S)-2-(3-(cyclopropanesulfonamido)azetidin-1-yl)-N-(2-(diethylamino)propyl)-6-(5-(thiophen-2-yl)pyrazolo[1,5-a]pyrimidin-3-yl)isonicotinamide]
  IC50: 0.28 nM

## CCN(CC)[C@@H](C)CNC(=O)c1cc(-c2cnn3ccc(-c4cccs4)nc23)nc(N2CCn3ccnc3C2)c1 [Example 155, (S)—N-(2-(diethylamino)propyl)-2-(5,6-dihydroimidazo[1,2-a]pyrazin-7(8H)-yl)-6-(5-(thiophen-2-yl)pyrazolo[1,5-a]pyrimidin-3-yl)isonicotinamide]
  IC50: 0.32 nM

## CCN(CC)[C@@H](C)CNC(=O)c1cc(-c2cnn3ccc(-c4cccs4)nc23)nc(N2CCC(O)C(F)(F)C2)c1 (stereo partly drawn) [Example 156, N—((S)-2-(diethylamino)propyl)-2-(3,3-difluoro-4-hydroxypiperidin-1-yl)-6-(5-(thiophen-2-yl)pyrazolo[1,5-a]pyrimidin-3-yl)isonicotinamide]
  IC50: 0.85 nM

## CCN(CC)[C@@H](C)CNC(=O)c1cc(NCCN(C)C)nc(-c2cnn3ccc(-c4cccs4)nc23)c1 [Example 157, (S)—N-(2-(diethylamino)propyl)-2-((2-(dimethylamino)ethyl)amino)-6-(5-(thiophen-2-yl)pyrazolo[1,5-a]pyrimidin-3-yl)isonicotinamide]
  IC50: 0.07 nM

## CCN(CC)[C@@H](C)CNC(=O)c1cc(NCCN(C)C)nc(-c2cnn3ccc(-c4ccccc4)nc23)c1 [Example 158, (S)—N-(2-(diethylamino)propyl)-2-((2-(dimethylamino)ethyl)amino)-6-(5-phenylpyrazolo[1,5-a]pyrimidin-3-yl)isonicotinamide]
  IC50: 0.56 nM

## COC1CN(c2cc(C(=O)NCC3(N)CCC3)cc(-c3cnn4ccc(-c5ccccc5)nc34)n2)C1 [Example 159, N-((1-aminocyclobutyl)methyl)-2-(3-methoxyazetidin-1-yl)-6-(5-phenylpyrazolo[1,5-a]pyrimidin-3-yl)isonicotinamide]
  IC50: 84.6 nM

## CCN(CC)[C@@H](C)CNC(=O)c1cc(-c2cnn3ccc(-c4ccccc4)nc23)nc(N2CC(OC)C2)c1 [Example 160, (S)—N-(2-(diethylamino)propyl)-2-(3-methoxyazetidin-1-yl)-6-(5-phenylpyrazolo[1,5-a]pyrimidin-3-yl)isonicotinamide]
  IC50: 1.15 nM

## COC1CN(c2cc(C(=O)NCC34CCCN3CCC4)cc(-c3cnn4ccc(-c5ccccc5)nc34)n2)C1 [Example 161, N-((hexahydro-1H-pyrrolizin-7a-yl)methyl)-2-(3-methoxyazetidin-1-yl)-6-(5-phenylpyrazolo[1,5-a]pyrimidin-3-yl)isonicotinamide]
  IC50: 105 nM

## CCN(CC)[C@@H](C)CNC(=O)c1cc(-c2cnn3ccc(-c4cccs4)nc23)nc(N2CCC(C)(O)CC2)c1 [Example 163, (S)—N-(2-(diethylamino)propyl)-2-(4-hydroxy-4-methylpiperidin-1-yl)-6-(5-(thiophen-2-yl)pyrazolo[1,5-a]pyrimidin-3-yl)isonicotinamide]
  IC50: 0.18 nM

## CCN(CC)[C@@H](C)CNC(=O)c1cc(NCC2(N3CCCC3)COC2)nc(-c2cnn3ccc(-c4cccs4)nc23)c1 [Example 164, (S)—N-(2-(diethylamino)propyl)-2-(((3-(pyrrolidin-1-yl)oxetan-3-yl)methyl)amino)-6-(5-(thiophen-2-yl)pyrazolo[1,5-a]pyrimidin-3-yl)isonicotinamide]
  IC50: 0.38 nM

## CCN(CC)[C@@H](C)CNC(=O)c1cc(-c2cnn3ccc(-c4ccsc4)nc23)nc(N2CC(OC)C2)c1 [Example 165, (S)—N-(2-(diethylamino)propyl)-2-(3-methoxyazetidin-1-yl)-6-(5-(thiophen-3-yl)pyrazolo[1,5-a]pyrimidin-3-yl)isonicotinamide]
  IC50: 0.13 nM

## CCN(CC)[C@@H](C)CNC(=O)c1cc(-c2cnn3ccc(-c4cncnc4)nc23)nc(N2CC(OC)C2)c1 [Example 166, (S)—N-(2-(diethylamino)propyl)-2-(3-methoxyazetidin-1-yl)-6-(5-(pyrimidin-5-yl)pyrazolo[1,5-a]pyrimidin-3-yl)isonicotinamide]
  IC50: 26 nM

## CCN(CC)[C@@H](C)CNC(=O)c1cc(-c2cnn3ccc(-c4cccs4)nc23)nc(N2CCCS2(=O)=O)c1 [Example 167, (S)—N-(2-(diethylamino)propyl)-2-(1,1-dioxidoisothiazolidin-2-yl)-6-(5-(thiophen-2-yl)pyrazolo[1,5-a]pyrimidin-3-yl)isonicotinamide]
  IC50: 0.16 nM

## C[C@H](N)CNC(=O)c1cc(-c2cnn3ccc(-c4cccs4)nc23)nc(N2CC(O)C2)c1 [Example 168, (S)—N-(2-aminopropyl)-2-(3-hydroxyazetidin-1-yl)-6-(5-(thiophen-2-yl)pyrazolo[1,5-a]pyrimidin-3-yl)isonicotinamide]
  IC50: 18.1 nM

## CCN[C@@H](C)CNC(=O)c1cc(-c2cnn3ccc(-c4cccs4)nc23)nc(N2CC(O)C2)c1 [Example 169, (S)—N-(2-(ethylamino)propyl)-2-(3-hydroxyazetidin-1-yl)-6-(5-(thiophen-2-yl)pyrazolo[1,5-a]pyrimidin-3-yl)isonicotinamide]
  IC50: 9.11 nM

## COC1CN(c2cc(C(=O)NCC3(N)CCC3)cc(-c3cnn4ccc(-c5cccs5)nc34)n2)C1 [Example 170, N-((1-aminocyclobutyl)methyl)-2-(3-methoxyazetidin-1-yl)-6-(5-(thiophen-2-yl)pyrazolo[1,5-a]pyrimidin-3-yl)isonicotinamide]
  IC50: 19.9 nM

## COC1CN(c2cc(C(=O)NC[C@H](C)N)cc(-c3cnn4ccc(-c5cccs5)nc34)n2)C1 [Example 171, (S)—N-(2-aminopropyl)-2-(3-methoxyazetidin-1-yl)-6-(5-(thiophen-2-yl)pyrazolo[1,5-a]pyrimidin-3-yl)isonicotinamide]
  IC50: 18.8 nM

## COC1CN(c2cc(C(=O)NC[C@H](C)N)cc(-c3cnn4ccc(-c5ccccc5)nc34)n2)C1 [Example 172, (S)—N-(2-aminopropyl)-2-(3-methoxyazetidin-1-yl)-6-(5-phenylpyrazolo[1,5-a]pyrimidin-3-yl)isonicotinamide]
  IC50: 85.3 nM

## CCN[C@@H](C)CNC(=O)c1cc(-c2cnn3ccc(-c4cccs4)nc23)nc(N2CC(OC)C2)c1 [Example 173, (S)—N-(2-(ethylamino)propyl)-2-(3-methoxyazetidin-1-yl)-6-(5-(thiophen-2-yl)pyrazolo[1,5-a]pyrimidin-3-yl)isonicotinamide]
  IC50: 13 nM

## CCN[C@@H](C)CNC(=O)c1cc(-c2cnn3ccc(-c4ccccc4)nc23)nc(N2CC(OC)C2)c1 [Example 174, (S)—N-(2-(ethylamino)propyl)-2-(3-methoxyazetidin-1-yl)-6-(5-phenylpyrazolo[1,5-a]pyrimidin-3-yl)isonicotinamide]
  IC50: 35.2 nM

## CCN(CC)[C@@H](C)CNC(=O)c1cc(-c2cnn3ccc(-c4ccns4)nc23)nc(N2CC(OC)C2)c1 [Example 176, (S)—N-(2-(diethylamino)propyl)-2-(5-(isothiazol-5-yl)pyrazolo[1,5-a]pyrimidin-3-yl)-6-(3-methoxyazetidin-1-yl)isonicotinamide]
  IC50: 0.29 nM
